{"source": "patent US20120315256A1", "about": "“USE OF TRANSFORMING GROWTH FACTOR - BETA 1 (TGF-B1) INHIBITOR PEPTIDES FOR THE TREATMENT OF CORNEAL FIBROSIS AND/OR HAZE” (DIGNA BIOTECH, S.I., priority 2010, published 2012)", "key": {"[1]": {"tested_on": "Long-Evans rats", "assay": "Corneal damage with 1 N NaOH in rats: weekly follow-up of corneal haze and epithelial closure (photographs, ImageJ)", "assay_type": "in vivo, rat", "conditions": "for chemical lesions induced after corneal damage with 1N NaOH: after treatment, different experimentation groups; for corneal haze, significance treated at the fifth week vs. treated at day 0 / epithelial closure, significance treated at the fifth week vs. treated at day 0: fifth week vs day 0; for corneal haze, significance control vs. peptide / epithelial closure, significance control vs. peptide: Student's t-test; for corneal haze / epithelial closure: treated eye vs control eye, topical eye drops, fifth formulation, 1 N NaOH damage; for epithelial closure: fluorescein", "excerpt": "In this study, domestic hens (Gallus gallus domesticus) aged between 12 and 16 months were initially used as experimental animals but due to the difficulty of the model, especially in relation to obtaining and handling the animals, it was decided to use Long-Evans rats. Furthermore, it was bibliographically verified that these animals are used for in vivo models for studying corneal fibrosis because they allow to follow the evolution of the damage with more precision since they are pigmented rats and, like humans, have a Bowman's membrane.\nMale Long-Evans rats aged 10 weeks were used, divided into 5 groups: • Group 1: 12 rats, 6 treated with dexamethasone and 6 treated with mitomycin C. • Group 2: 12 rats, 6 treated with p17 of the first formulation (see section 1.1.2.b) and 6 treated with p144 of the first formulation (see section 1.1.2.b). • Group 3: 12 rats, 6 treated with p17 of the second formulation (see section 1.1.2.b) and 6 treated with p144 of the second formulation (see section 1.1.2.b). • Group 4: 12 rats, 6 treated with p17 of the third formulation (see section 1.1.2.b) and 6 treated with p144 of the third formulation (see section 1.1.2.b). • Group 5: 12 rats, 6 treated with p17 of the fourth formulation (see section 1.1.2.b) and 6 treated with p144 of the fourth formulation (see section 1.1.2.b). • Group 6: 12 rats, 6 treated with p17 of the fifth formulation (see section 1.1.2.b) and 6 treated with p144 of the fifth formulation (see section 1.1.2.b).\nTo perform the damage in the cornea, the animals were anesthetized with isoflurane and a 5 mm Whatman paper disc impregnated in 1 N NaOH for 30 seconds was applied to them in the central part of the eye. After the damage, they were washed with abundant physiological saline serum and an antibiotic ointment was applied to them to prevent possible infections in the affected area.\nAfter conducting several in vivo studies with the previously described groups of animals, it could be concluded that the chemical damage occurring after the application of NaOH for 30 seconds caused an excessive lesion for the study which was to be conducted, therefore, it was decided to conduct new experiments reducing the time to 15 seconds.\nIt was randomly established that the left eye of each animal would act as a control and that the right eye would be the treated eye, such that the same animals acts as a control in addition to being treated. It must be pointed out that all the animals received antibiotic treatment in both eyes daily only during the first week of the study for the purposes of avoiding microbial keratitis.\nStarting from 0.15% sodium hyaluronate (Hyabak 10 mL, Thea) without preservatives: • p144: 20 mg were dissolved in 5 ml of eye drops, […] of saturated concentrated NaOH were incorporated, stirring and adding in portions of 5 μl. It was sonicated until solubilization. To adjust the pH, 500 μl of 1M HEPES (4-(2-hydroxyethyl)-1-piperazineethanesulfonic acid) were added, such that the pH changed from 10.5 to 7 • p144 control: 40 μl of saturated NaOH and 500 μl of 1 M HEPES (final concentration of HEPES 50 mM) • p17: 20 mg were dissolved in 5 ml of the eye drops, it was sonicated until complete solubilization and it was incorporated to the vial with a 10 ml syringe and a blue needle to perforate the filter of the contained (final concentration 2 mg/ml) • p17 control: non-manipulated eye drops • Note: The formulations were maintained at 4° C. throughout the study.\nTherefore, all the results shown in relation to in vivo will refer to this type of treatment.\nThe administration of the treatment was initiated twenty-four hours after the damage. After that time a follow-up of the damage was performed, which consisted of taking photographs at days 0, 7, 14, 21, 28 and 35. To take the photographs the animals were anesthetized with isoflurane. Photographs were taken of both the control eye (left) and of the treated eye (right) with and without fluorescein. […]"}, "[2]": {"tested_on": "Smad 2/3", "assay": "Western Blot against Smad2/3 in rabbit corneal fibroblasts", "assay_type": "cell-based", "conditions": "primary culture; peptide 50 and 200 μg/ml", "method": "(§1) Therefore, Western Blot and immunofluorescence studies were conducted to determine, from cells extracted from the in vivo studies, the signaling pathway used by the peptides administered topically. It should be emphasized that said studies were conducted on fibroblasts from rabbit cornea and not from rat cornea. This decision was made due to the difficulty entailed in isolating fibroblasts from rodent eyes.\n(§2) Since the scientific literature repeatedly describes the TGF-β1 signaling pathways, the decision was made to go into depth in such pathways by means of the techniques described in the methodology section. Said pathways involve the study of the Smad protein family, specifically the study of the isoforms Smad2, 2/3 and 7.\n(§3) To that end, protein extracts obtained from the primary culture of rabbit fibroblasts were treated with TGF-β1 at concentrations of 0, 3 and 5 ng/ml and, 50 and 200 μg/ml of peptide p17 and p144."}, "[3]": {"tested_on": "p-Smad2", "assay": "Immunofluorescence for p-Smad2 on rabbit corneal fibroblasts", "assay_type": "cell-based", "conditions": "TGF-β1 treated fibroblasts", "method": "as §1"}, "[4]": {"tested_on": "Smad 7", "assay": "Western Blot against Smad7 in rabbit corneal fibroblasts treated with TGF-β", "assay_type": "cell-based", "conditions": "primary culture; peptide 50 and 200 μg/ml", "method": "as §1, §2, §3"}, "[5]": {"tested_on": "p-Smad2", "assay": "Western Blot against p-Smad2 in TGF-β1-treated primary culture of rabbit corneal fibroblasts", "assay_type": "cell-based", "conditions": "for inhibition of the expression of p-Smad2: TGF-β1 treated", "method": "as §1, §2, §3"}}, "note": "“Also recorded” adds a separate entry of the source.", "data": [{"molecule": "CO[C@@]12[C@H](COC(N)=O)C3=C(C(=O)C(C)=C(N)C3=O)N1C[C@@H]1N[C@@H]12", "note": "[mitomycin C, reference compound]", "values": [{"measurement": "clinical efficacy of drugs usually used in the treatment of corneal fibrosis", "setting": "[1]; first experiment, Group 1", "value": "correspond to those described in the scientific literature"}]}, {"molecule": "KRIWFIPRSSWYERA (TGF-beta 1 inhibitor peptide) [p17]", "values": [{"measurement": "expression of Smad 2/3", "setting": "[2]", "value": "not affected; also recorded: not modified"}, {"measurement": "chemical lesions induced after corneal damage with 1N NaOH", "setting": "[1]", "value": "decreases significantly"}, {"measurement": "corneal haze, significance treated at the fifth week vs. treated at day 0", "setting": "[1]", "value": "highly significant"}, {"measurement": "epithelial closure, significance treated at the fifth week vs. treated at day 0", "setting": "[1]", "value": "highly significant"}, {"measurement": "corneal haze, significance control vs. peptide", "setting": "[1]; fifth week", "value": "highly significant"}, {"measurement": "epithelial closure, significance control vs. peptide", "setting": "[1]; fifth week", "value": "very significant"}, {"measurement": "corneal haze", "setting": "[1]", "value": "clear decrease; also recorded: significantly reversed"}, {"measurement": "epithelial closure", "setting": "[1]", "value": "clear decrease; also recorded: significantly reversed"}, {"measurement": "translocation of p-Smad2 to the nucleus", "setting": "[3]", "value": "did not inhibit"}, {"measurement": "expression of Smad 7", "setting": "[4]", "value": "not modified"}, {"measurement": "effect on the signaling cascade of TGF-β1", "setting": "[5]; primary culture of rabbit corneal fibroblasts, Smad2, Smad2/3, Smad7", "value": "does not have any effect"}]}, {"molecule": "TSLDASIIWAMMQN (TGF-beta 1 inhibitor peptide) [p144]", "values": [{"measurement": "expression of Smad 2/3", "setting": "[2]", "value": "not affected; also recorded: not modified"}, {"measurement": "chemical lesions induced after corneal damage with 1N NaOH", "setting": "[1]", "value": "decreases significantly"}, {"measurement": "corneal haze, significance treated at the fifth week vs. treated at day 0", "setting": "[1]", "value": "highly significant"}, {"measurement": "epithelial closure, significance treated at the fifth week vs. treated at day 0", "setting": "[1]", "value": "highly significant"}, {"measurement": "corneal haze, significance control vs. peptide", "setting": "[1]; fifth week", "value": "highly significant"}, {"measurement": "epithelial closure, significance control vs. peptide", "setting": "[1]; fifth week", "value": "highly significant"}, {"measurement": "epithelial closure, significance control vs. peptide", "setting": "[1]; fourth week", "value": "significant"}, {"measurement": "corneal haze, significance control vs. peptide", "setting": "[1]; second and fourth week", "value": "significant"}, {"measurement": "corneal haze", "setting": "[1]", "value": "clear decrease; also recorded: significantly reversed"}, {"measurement": "epithelial closure", "setting": "[1]", "value": "clear decrease; also recorded: significantly reversed"}, {"measurement": "translocation of p-Smad2 to the nucleus", "setting": "[3]", "value": "inhibited"}, {"measurement": "expression of Smad 7", "setting": "[4]", "value": "not modified"}, {"measurement": "inhibition of the expression of p-Smad2", "setting": "[5]; peptide 50 μg/ml", "value": "slight inhibition; also recorded: inhibiting the phosphorylation of Smad2"}, {"measurement": "inhibition of the expression of p-Smad2", "setting": "[5]; peptide 200 μg/ml", "value": "reaching the values of the controls; also recorded: inhibiting the phosphorylation of Smad2"}]}]}
